Data as given in patent publication US6495529B1 (Warner-Lambert Company, priority 1998, dated 2002).

Key:
[1] = test system: New Zealand white rabbits; experiment: Intraocular pressure (IOP) after topical application to rabbit eye
[2] = biological target: α1-receptors; assay type: binding, dog; conditions: read-out: Alpha-1 Ki
Experimental: The lungs of mongrel dogs were separated from cartilaginous airways and major blood vessels, weighted, chopped and placed into 10 volumes of ice-cold buffered sucrose (50 mM Tris-HCl pH 7.4, 1 mM EGTA, 0.32 M Sucrose). The tissue was then homogenized in a Polytron tissue homogenizer. The homogenate was filtered through two layers of cheesecloth, and the filtrate was dounced three times using a Con-Turque Potter homogenizer. […] The supernatant was recentrifuged at 30,000×g for 30 min at 4° C. and the resulting pellet was washed and resuspended in 10 volumes of Tris buffer (50 mM Tris HCL, pH 7.4, 1 mM EGTA) and incubated at 37° C. for 30 min in a shaking water bath. The suspension was centrifuged at 4° C., at 30,000×g for 30 min and the resulting pellet washed in 10 volumes of Tris buffer. […] Protein concentration was then determined by the Lowry method and the final suspension was adjusted to 10 mg of protein/ml, aliquoted and stored at −90° C.
Nonspecific binding was determined for each concentration point in separate incubations, with 10 μM phentolamine. Each experimental point was determined in triplicate. […] All binding assay incubations were terminated by rapid dilution with 2 ml of ice-cold wash buffer (50 mM Tris-HCl, pH 7.4) and filtration through Whatman GF/B filters using Brandel receptor-binding harvester.
All data were analyzed with the aid of microcomputer nonlinear curve fitting programs (PRISM 2.0, Graphpad Software, San Diego Calif.).
The receptors resident in each of the three membrane preparations were evaluated by standard saturation analysis following the addition of increasing concentrations of the appropriate radioligand. […]

[3] = test system: rats; experiment: Dosage that raised mean arterial pressure 10% in rat; assay type: in vivo
[4] = test system: histamine-challenged rats; experiment: Nasal airway pressure in histamine-challenged rats; conditions: for Nasal airway pressure, Post Drug: 100% dose i.v. two minutes after histamine; for Nasal airway pressure, Post Histamine: after intranasal histamine 50 mM 0.02 ml/nostril, before drug; for Nasal airway pressure, Control: before histamine and drug; for Mean decrease in nasal airway pressure, % Change: post drug vs post histamine
[5] = test system: mongrel dogs; experiment: Intravenous dose increasing mean arterial pressure 10% in anesthetized dogs; conditions: anesthetized dog, i.v.
[6] = test system: Sprague Dawley rats; experiment: Nasal airway pressure in normal (non-histamine-challenged) rats; conditions: for Mean Decrease in Nasal Airway Pressure: i.v.; for Mean decrease in nasal airway pressure, % Change: 100% dose i.v.; for Mean decrease in nasal airway pressure, % Change / Nasal airway pressure, Control: non-histamine-challenged rats; for Nasal airway pressure, Post Drug: after 100% dose (dose raising MAP 10%) into jugular vein; for Nasal airway pressure, Control: before drug
[7] = test system: Swiss-Webster mice; experiment: Locomotor stimulant and depressant effects in mice; conditions: mice, i.p.; for locomotor depressant effect (in words) / locomotor stimulant effect (in words): 2-hour session
Experimental: Male Swiss-Webster mice (HSD ND4, Harlan Sprague Dawley, Houston, Tex.) aged 2-3 months were used in these studies. Each dose group consisted of 8 mice. The mice were housed 2 to 4 per cage in 30.4×22.9×15.2 cm clear polycarbonate cages with food and water available ad libitum for at least one week prior to locomotor activity testing. The colony was maintained at 23±1° C., on a normal light-dark cycle beginning at 0700 hr. All testing took place during the light portion of the light-dark cycle.
Horizontal (forward movement) locomotor activity was measured using a standardized, optical activity monitoring system [Model KXYZCM (16), Omnitech Electronics, Columbus, Ohio]. Activity was monitored in forty 40.5×40.5×30.5 cm clear acrylic chambers that where housed in sets of two within larger sound-attenuating chambers. A panel of 16 infrared beams and corresponding photodetectors were spaced 2 cm apart along the sides and 2.4 cm above the floor of each activity chamber. A 7.5-W incandescent light above each chamber provided dim illumination via a rheostat set to 20% of full scale. Fans provided an 80-dB ambient noise level within the chamber.
(+)-Amphetamine was used as a positive control. The total horizontal distance traversed (cm) was recorded at 10 minute intervals for a 2-hour session. Separate groups of 8 mice were assigned to each dose or saline group, and dose-effect testing continued for each compound until maximal stimulant or depressant effects could be estimated. A separate control group was tested along with each compound.
Using TableCurve 2D v2.03 (Jandel Scientific), the mean average total distance traversed (cm/10 min) for that period was fit to a 3-parameter logistic peak function of log10 dose (with the constant set to the mean of the saline group), and the maximum effect estimated from the resulting curve. The ED50 (dose producing ½ maximal stimulant activity) was estimated from a linear regression against log10 dose of the ascending portion of the dose-effect curve. The stimulant efficacy was the peak effect of the compound (cm/10 min) as estimated from the logistic peak function, minus the mean control distance traveled (cm/10 min), and was expressed for each stimulant compound as a ratio to the stimulant efficacy determined for (+)-amphetamine.
The mean average total distance traversed (cm/10 min) for that period were fit to a linear function of log10 dose of the descending portion of the dose-effect curve. […] Efficacy was the ratio of maximal depressant effect to maximum possible depression for each compound (mean average total distance of the control group minus the lowest mean total distance, expressed as a ratio to the control group total distance).
Time course data for each compound were considered in 2-way analyses of variance with dose as a between-group and time as a within-group factor. The dose-effect data were considered in 1-way analyses of variance, and planned individual comparisons were conduced between each dose and the saline control group. Interaction studies were considered in 2-way analyses of variance, with Pretreatment and Test dose as the factors.

[8] = 5% of the dose that increased MAP 10%, mean ± SEM
[9] = 10% of the dose that increased MAP 10%
[10] = 50% of the dose that increased MAP 10%

## CN[C@@H](C)[C@H](O)c1ccccc1 [(−)-ephedrine]
[1]; topical 1% and 2%, rabbit, treated eye
  effect on IOP (in words): increased IOP
[2]
  Ki: 47 µM
[3]
  Dosage of Enantiomer that Raised Mean Arterial Pressure 10%, Rat: 30 µg
[4]
  Nasal airway pressure, Post Drug: 6.4 mm water
  Nasal airway pressure, Post Histamine: 8.2 ± 0.7 mm water
  Nasal airway pressure, Control: 6.7 ± 0.4 mm water
  Mean decrease in nasal airway pressure, % Change: −21.8%
[5]
  Intravenous Dose Needed to Increase MAP 10%: 0.1 mg/kg
[6]; [8]
  Mean Decrease in Nasal Airway Pressure: −1.0 ± 0.8 mm water
[6]; [9]
  Mean Decrease in Nasal Airway Pressure: −2.5 ± 1.5 mm water
[6]; [10]
  Mean Decrease in Nasal Airway Pressure: −1.9 ± 2.0 mm water
[6]
  Mean decrease in nasal airway pressure, % Change: −14%
  Nasal airway pressure, Post Drug: 6 ± 0.5 mm H2O
  Nasal airway pressure, Control: 7 ± 0.8 mm H2 O
[7]
  locomotor depressant effect (in words): did not cause locomotor depression
  locomotor stimulant effect (in words): increased locomotion
[7]; (−)-ephedrine: following 50 to 100 mg/kg
  onset of increased locomotion after injection: ≤ 40 min

## CNC[C@H](O)c1cccc(O)c1 [(−)-phenylephrine]
[1]; drug 1% topical, drug treated eye (T), 0.5 hr
  IOP: 24 ± 0.6 mmHg
[1]; drug 1% topical, drug treated eye (T), 1 hr
  IOP: 24 ± 1.0 mmHg
[1]; drug 1% topical, drug treated eye (T), 3 hr
  IOP: 23 ± 1.5 mmHg
[1]; drug 1% topical, drug treated eye (T), 5 hr
  IOP: 21 ± 1.9 mmHg
[1]; drug 1% topical, drug treated eye (T), −0.5 hr (pre-treatment)
  IOP: 16 ± 1.5 mmHg
[1]; drug 1% topical, drug treated eye (T), −1 hr (pre-treatment)
  IOP: 20 ± 1.6 mmHg
[1]; drug 1% topical, untreated contralateral eye (U), 0.5 hr
  IOP: 18 ± 1.6 mmHg
[1]; drug 1% topical, untreated contralateral eye (U), 1 hr
  IOP: 19 ± 1.3 mmHg
[1]; drug 1% topical, untreated contralateral eye (U), 3 hr
  IOP: 20 ± 1.9 mmHg
[1]; drug 1% topical, untreated contralateral eye (U), 5 hr
  IOP: 19 ± 1.7 mmHg
[1]; drug 1% topical, untreated contralateral eye (U), −0.5 hr (pre-treatment)
  IOP: 15 ± 2.1 mmHg
[1]; drug 1% topical, untreated contralateral eye (U), −1 hr (pre-treatment), mean ± S.E.
  IOP: 16 ± 1.0 mmHg
[1]; drug 2% topical, drug treated eye (T), 0.5 hr
  IOP: 12 ± 0.8 mmHg
[1]; drug 2% topical, drug treated eye (T), 1 hr
  IOP: 14 ± 2.0 mmHg
[1]; drug 2% topical, drug treated eye (T), 3 hr
  IOP: 16 ± 0.8 mmHg
[1]; drug 2% topical, drug treated eye (T), 5 hr
  IOP: 14 ± 1.3 mmHg
[1]; drug 2% topical, drug treated eye (T), −0.5 hr (pre-treatment)
  IOP: 15 ± 1.5 mmHg
[1]; drug 2% topical, drug treated eye (T), −1 hr (pre-treatment)
  IOP: 18 ± 1.6 mmHg
[1]; drug 2% topical, untreated contralateral eye (U), 0.5 hr
  IOP: 20 ± 2.0 mmHg
[1]; drug 2% topical, untreated contralateral eye (U), 1 hr
  IOP: 20 ± 2.4 mmHg
[1]; drug 2% topical, untreated contralateral eye (U), 3 hr
  IOP: 14 ± 1.7 mmHg
[1]; drug 2% topical, untreated contralateral eye (U), 5 hr
  IOP: 14 ± 2.0 mmHg
[1]; drug 2% topical, untreated contralateral eye (U), −0.5 hr (pre-treatment)
  IOP: 17 ± 1.9 mmHg
[1]; drug 2% topical, untreated contralateral eye (U), −1 hr (pre-treatment)
  IOP: 17 ± 1.9 mmHg
[2]
  Ki: 3 µM
[3]
  Dosage of Enantiomer that Raised Mean Arterial Pressure 10%, Rat: 3 to 5 µg
[4]
  Nasal airway pressure, Post Drug: 10.5 mm water
  Nasal airway pressure, Post Histamine: 13.2 ± 2.1 mm water
  Nasal airway pressure, Control: 7.5 ± 0.5 mm water
  Mean decrease in nasal airway pressure, % Change: −22.3%
[5]
  Intravenous Dose Needed to Increase MAP 10%: 0.01 mg/kg
[6]; [8]
  Mean Decrease in Nasal Airway Pressure: −1.6 ± 0.9 mm water
[6]; [9]
  Mean Decrease in Nasal Airway Pressure: −4.8 ± 0.8 mm water
[6]; 25% of the dose that increased MAP 10%
  Mean Decrease in Nasal Airway Pressure: −12.1 ± 2.4 mm water
[6]; [10]
  Mean Decrease in Nasal Airway Pressure: −5.2 ± 1.6 mm water
[6]
  Mean decrease in nasal airway pressure, % Change: −20.3%
  Nasal airway pressure, Post Drug: 4 ± 0.2 mm H2O
  Nasal airway pressure, Control: 5 ± 0.2 mm H2 O
[7]
  Depression Potency (ID50, dose resulting in ½ the maximal depressant effect): 2.3 mg/kg
  Depression Time (30-min period following injection in which the maximal depression occurred): 0 to 30 min
  Stimulation Time (30-min period following injection in which the maximal stimulant effect occurred): 60 to 90 min
  locomotor depressant effect (in words): some locomotor depression
  locomotor stimulant effect (in words): Little or no stimulant effects
